Earlier results as cited in paper PMC9230797, “Integration of a Physiologically Based Pharmacokinetic and Pharmacodynamic Model for Tegoprazan and Its Metabolite: Application for Predicting Food Effect and Intragastric pH Alterations” (Pharmaceutics, 2022).
Where two headings read alike, the source gives them in different places.

Columns and labels:
[1] = cited from earlier work
[2] = design: method as in PMID 19006606; details: cited from earlier work
[3] = design: method as in PMID 28378544; details: cited from earlier work

Structure (SMILES): COCCCOc1ccnc(C[S+]([O-])c2nc3ccccc3[nH]2)c1C (stereo not drawn) [rabeprazole]
- PK parameters (Tmax, AUC, half-life, Cmax) after a high-fat meal [1]: tended to fluctuate significantly

Structure (SMILES): COc1ccc2[nH]c([S+]([O-])Cc3ncc(C)c(OC)c3C)nc2n1 (stereo not drawn) [tenatoprazole]
- plasma half-life [2]: up to 9 h

Structure (SMILES): COc1ccc2[nH]c([S+]([O-])Cc3ncc(C)c(OC)c3C)nc2c1 (stereo not drawn) [omeprazole]
- mean AUC0–12 h ([3]; CYP2C19 EM, multiple administrations): 1715 µg·h/L
- mean AUC0–12 h ([3]; CYP2C19 EM, single administration): 713.5 µg·h/L
- mean AUC0–12 h ([3]; CYP2C19 IM, multiple administrations): 2087 µg·h/L
- mean AUC0–12 h ([3]; CYP2C19 IM, single administration): 972.5 µg·h/L
- mean AUC0–12 h ([3]; CYP2C19 PM, multiple administrations): 3669 µg·h/L
- mean AUC0–12 h ([3]; CYP2C19 PM, single administration): 3652 µg·h/L
- AUC0–12 h ratio PM vs EM ([3]; multiple administrations): 2.14 fold
- AUC0–12 h ratio PM vs IM ([3]; multiple administrations): 1.76 fold
- AUC0–12 h ratio PM vs EM ([3]; single administration): 5.12 fold
- AUC0–12 h ratio PM vs IM ([3]; single administration): 3.76 fold
- PK parameters (Tmax, AUC, half-life, Cmax) after a high-fat meal [1]: tended to fluctuate significantly

Structure (SMILES): COc1ccnc(C[S+]([O-])c2nc3ccc(OC(F)F)cc3[nH]2)c1OC (stereo not drawn) [pantoprazole]
- PK parameters (Tmax, AUC, half-life, Cmax) after a high-fat meal [1]: tended to fluctuate significantly

Structure (SMILES): CNCc1cc(-c2ccccc2F)n(S(=O)(=O)c2cccnc2)c1 [vonoprazan]
- effect of food intake on PK parameters [1]: not significantly affected
